Measured values: US7129346B2, “Crown ether derivatives” (Molecular Probes, Inc., priority 2000, dated 2006)
Entries after “also recorded” stand apart in the source; their conditions may differ.

Tests used:
[1] = Indicator fluorescence response titration, dissociation constant for Na+; format: binding
Protocol: (§1) The fluorescence response of a selected compound of the invention as a function of ion concentration was determined by dissolving a sample of the pure compound in 3 mL of each of two solutions: solution 1 (“high”) consists of 200 mM NaCl (or other appropriate ion) and 10 mM MOPS buffer at pH 7.05; solution 2 (“zero”) consists of 10 mM MOPS buffer at pH 7.05 in deionized water. […]. A least-squares fit was used to arrive at the concentration where the selected indicator was maximally sensitive to changes in Na^+ concentration. This corresponded to the dissociation constant of that indicator for Na^+ and was expressed as a concentration.
(§2) This methodology was repeated for K+, Li+ and Tb+ to obtain emission spectra and to calculate the Kd values. See, Table 2 and FIG. 4
For visible wavelength probes such as Compound 22 (Example 17), Compound 27 (Example 22) and Compound 86 (Example 79) the indicator's fluorescence emission was typically scanned from 450–650 nm while the sample was excited at the absorption maximum wavelength. For UV-excitable ratiometric probes such as Compound 51 (Example 46), the excitation wavelengths of the dye in solution 2 were scanned from 260 to 450 nm while monitoring constant fluorescence emission at 510 nm (as in FIG. 1). […]

[2] = Indicator fluorescence response titration, dissociation constant for K+; format: binding
Protocol: The fluorescence response of a selected compound of the invention as a function of ion concentration was determined by dissolving a sample of the pure compound in 3 mL of each of two solutions: solution 1 (“high”) consists of 200 mM NaCl (or other appropriate ion) and 10 mM MOPS buffer at pH 7.05; solution 2 (“zero”) consists of 10 mM MOPS buffer at pH 7.05 in deionized water. A series of curves are generated by cross dilution between the two solutions to arrive at intermediate concentrations of Na+, K+, Li+ and Tb+. The emission of a selected indicator in solution 2 was scanned and then was repeated to cover the entire range from zero to 200 mM Na^+. For example, the fluorescence emission of the chosen indicator was scanned while the sample was excited at that indicator's absorption maximum wavelength, and then 1/100 of the sample was removed and replaced with 1/100 of solution 1 to arrive at a Na^+ concentration of 2 mM. This dilution was repeated to cover the entire range from zero to […] Na^+ and the resulting emission intensities were plotted versus the ion concentrations. A least-squares fit was used to arrive at the concentration where the selected indicator was maximally sensitive to changes in Na^+ concentration. This corresponded to the dissociation constant of that indicator for Na^+ and was expressed as a concentration.
as §2
(§3) For visible wavelength probes such as Compound 22 (Example 17), Compound 27 (Example 22) and Compound 86 (Example 79) the indicator's fluorescence emission was typically scanned from 450–650 nm while the sample was excited at the absorption maximum wavelength. For UV-excitable ratiometric probes such as Compound 51 (Example 46), the excitation wavelengths of the dye in solution 2 were scanned from 260 to 450 nm while monitoring constant fluorescence emission at 510 nm (as in FIG. 1).

[3] = Indicator fluorescence response titration, dissociation constant for Zn2+; format: binding; conditions: Table 1, Formula (I) compounds; approximate values; read-out: Dissociation Constant (target ion) Kd (Zn^2+)
Protocol: as §1

[4] = Indicator fluorescence response titration, dissociation constant for Ca2+; format: binding; conditions: Table 1, Formula (I) compounds, read-out: Dissociation Constant (target ion) Kd (Ca^2+)
Protocol: as §1

Jurkat cells = assay: Calibration of sodium indicator fluorescence response in cells (flow cytometry); format: cell-based; conditions: 2 μM gramicidin, extracellular Na+ 0-145 mM, excitation 488 nm; for Intracellular fluorescence response to increasing intracellular Na^+ concentration: Jurkat cells, 5 μM Compound 25 or 10 μM Compound 87
Protocol: Jurkat cells were loaded with a 5 μM solution of either Compound 25 (Example 20), or commercially available SODIUM GREEN tetraacetate indicator (Molecular Probes, Inc., Eugene, Oreg.) and 10 μM for Compound 87 (Example 80) for 30 minutes at 37° C. The use of PLURONIC dispersing agent helped dissolve the selected indicator. Intracellular sodium concentrations were then established by varying the sodium concentration of the extracellular buffer in the presence of 2 μM gramicidin (a sodium-pore forming antibiotic). The extracellular buffer was set at 0 mM, 10 mM, 20 mM, 50 mM, 100 mM, and 145 mM, respectively. Intracellular fluorescence response of the selected indicators was measured using a FACSCAN flow cytometer and associated software, with fluorescence excitation at 488 nm.

[5] = Indicator fluorescence response titration, dissociation constant for Li+; format: binding; conditions: Table 2, Formula (II) compounds, in solution
Protocol: as §1, §2, §3

[6] = Indicator fluorescence response titration, dissociation constant for Rb+; format: binding; conditions: Table 2, Formula (II) compounds, in solution
Protocol: as §1, §2, §3

[7] = Table 1, Formula (I) compounds, approximate values, read-out: Dissociation Constant (target ion) Kd (Na^+)
[8] = Table 2, Formula (II) compounds, in solution
[9] = Table 2, Formula (II) compounds, in solution, 10 mM MOPS pH 7.05, read-out: Dissociation constant Kd (Na^+)

For COC(=O)CN1CCOCCN(CC(=O)OC)c2cc3oc(-c4ncc(C(=O)O)o4)cc3cc2OCCOc2cc(C)ccc21, the Kd [1, 7] was ~52 mM.
Molecule COC(=O)CN1CCOCCN(CC(=O)OC)c2ccc(-c3cc4ccc(C(=O)OC)cc4[nH]3)cc2OCCOc2cc(C)ccc21 has a Kd [1, 7] of ~30 mM and a Kd ([2]; Table 1, Formula (I) compounds, approximate value printed in nM, read-out: Dissociation Constant (target ion) Kd (K^+)) of ~115 nM.
In the case of COC(=O)CN1CCOCCN(CC(=O)OC)c2cc(OCC(=O)O)c(-c3cc4ccc(C(=O)OC)cc4[nH]3)cc2OCCOc2cc(C)ccc21, the Kd [1, 7] is reported as ~52 mM.
Work on COC(=O)CN1CCOCCN(CC(=O)OC)c2ccc(-c3c4cc(F)c(=O)cc-4oc4cc(O)c(F)cc34)cc2OCCOc2cc(C)ccc21 yielded a Kd [1, 7] of ~60 mM.
Molecule COC(=O)CN1CCOCCN(CC(=O)OC)c2ccc(-c3c4ccc(=[N+](C)C)cc-4oc4cc(N(C)C)ccc34)cc2OCCOc2cc(C)ccc21 has a Kd [1, 7] of ~95 mM.
COC(=O)CN1CCOCCN(CC(=O)OC)c2cc(OCC(=O)[O-])c(-c3c4ccc(=[N+](C)C)cc-4oc4cc(N(C)C)ccc34)cc2OCCOc2cc(C)ccc21 showed a Kd [1, 7] of ~92 mM.
Molecule Cc1ccc2c(c1)OCCOc1cc(-c3c4ccc(=[N+](C)C)cc-4oc4cc(N(C)C)ccc34)c(OCC(=O)O)cc1N(CC(=O)O)CCOCCN2CC(=O)O has a Kd [1, 7] of ~70 mM and a Kd [3] of ~0.0001 mM.
Work on COC(=O)CN1CCOCCN(CC(=O)OC)c2cc(OCC(=O)NC(CC(=O)O)C(=O)[O-])c(-c3c4ccc(=[N+](C)C)cc-4oc4cc(N(C)C)ccc34)cc2OCCOc2cc(C)ccc21 (centres unmarked) yielded a Kd [1, 7] of ~85 mM.
CCCCCCCCCCCCCCCCCCNC(=O)COc1cc2c(cc1-c1c3ccc(=[N+](C)C)cc-3oc3cc(N(C)C)ccc13)OCCOc1cc(C)ccc1N(CC(=O)OC)CCOCCN2CC(=O)OC gave a Kd [1, 7] of ~14 mM.
In the case of Cc1ccc2c(c1)OCCOc1cc(-c3c4ccc(=[N+](C)C)cc-4oc4cc(N(C)C)ccc34)ccc1N(CC(=O)O)CCOCCN2CC(=O)[O-], the Kd ([4]; approximate values) is reported as ~0.004 mM, the Kd [1, 7] is reported as ~38 mM and the Kd [3] is reported as ~0.0003 mM.
Work on Cc1ccc2c(c1)OCCOc1cc(C3=c4cc5c6c(c4Oc4c3cc3c7c4CCCN7CCC3)CCC[N+]=6CCC5)ccc1N(CC(=O)O)CCOCCN2CC(=O)[O-] yielded a Kd ([4]; approximate values) of ~0.007 mM and a Kd [3] of ~0.008 mM.
Cc1ccc2c(c1)OCCOc1cc(-c3c4cc(F)c(=O)cc-4oc4cc(O)c(F)cc34)ccc1N(CC(=O)O)CCOCCN2CC(=O)O showed a Kd ([4]; approximate values) of ~0.005 mM, a Kd [1, 7] of ~36 mM and a Kd [3] of ~0.0003 mM.
Cc1ccc2c(c1)OCCOc1cc(-c3c4cc(F)c(=O)cc-4oc4cc(O)c(F)cc34)ccc1N(CC(N)=O)CCOCCN2CC(N)=O gave a Kd [3] of ~0.6 mM.
Molecule Cc1ccc2c(c1)OCCOc1cc(-c3c4ccc(=[N+](C)C)cc-4oc4cc(N(C)C)ccc34)ccc1N(CC(N)=O)CCOCCN2CC(N)=O has a Kd [3] of ~0.65 mM.
Cc1ccc2c(c1)OCCOc1cc3cc(-c4ncc(C(=O)O)o4)oc3cc1N(CC(=O)O)CCOCCN2CC(=O)O gave a Kd ([4]; approximate value) of ~0.0004 mM.
In the case of COC(=O)OCOC(=O)CN1CCOCCN(CC(=O)OCOC(C)=O)c2ccc(C)cc2OCCOc2cc(C3=C4C=C(F)C(O)C=C4Oc4cc(OCOC(C)=O)c(F)cc43)ccc21 (centres unmarked) [Compound 25], the “Intracellular fluorescence intensity compared with SODIUM GREEN indicator” value (Jurkat cells; Jurkat cells loaded with 5 μM for 30 minutes at 37° C., FIG. 3) is reported as “stronger fluorescence intensity than SODIUM GREEN sodium indicator; also recorded: substantially brighter intracellular fluorescence intensity than the SODIUM GREEN indicator” and the “Intracellular fluorescence response to increasing intracellular Na^+ concentration” value (Jurkat cells) is reported as “consistent increase in fluorescence intensity”.
In the case of COC(=O)CN1CCOCCOCCOCCOc2cc(-c3c4cc(F)c(=O)cc-4oc4cc(O)c(F)cc34)ccc21 [Compound 86], the “Response to complexation (R = F/F0), R (Li^+)” value [5] is reported as 6.8, the “Response to complexation (R = F/F0), R (Na^+)” value (from here on “Response … (Na^+)”) [1, 8] is reported as 28.5 and the Kd [1, 9] is reported as 82 mM. For the same molecule, the “Response to complexation (R = F/F0), R (K^+)” value [2, 8] was 6.9 and the “Response to complexation (R = F/F0), R (Rb^+)” value [6] was 2.7.
For COC(=O)CN1CCOCCOCCOCCOc2cc(-c3c4cc(F)c(=O)cc-4oc4cc(OCOC(C)=O)c(F)cc34)ccc21 [Compound 87], the “Intracellular fluorescence response to increasing intracellular Na^+ concentration” value (Jurkat cells) was “increased fluorescent signal with increasing concentrations of sodium ions”.
In the case of COC(=O)CN1CCOCCOCCOCCOc2cc(-c3cc4ccc(C(=O)OC)cc4[nH]3)ccc21 [Compound 93], the “Response … (Na^+)” value [1, 8] is reported as 25, the Kd [1, 9] is reported as 89 mM and the “Dissociation constant Kd (K^+)” value ([2]; Table 2, Formula (II) compounds, in solution, 10 mM MOPS pH 7.05) is reported as “Kd (K^+) = no sensitivity”.
With COCCN1CCOCCOCCOCCOc2cc(-c3c4cc(F)c(=O)cc-4oc4cc(O)c(F)cc34)ccc21 [Compound 115] the “Response … (Na^+)” value [1, 8] was 5.9, the Kd [1, 9] was 78.8 mM and the “Response to complexation (R = F/F0), R (K^+)” value [2, 8] was 2.8.
With COCCN1CCOCCOCCOCCOc2cc(-c3cc4ccc(C(=O)OC)cc4[nH]3)ccc21 [Compound 120] the “Response … (Na^+)” value [1, 8] was 2 and the Kd [1, 9] was 89 mM.
With COC(=O)c1ccc2cc(-c3ccc4c(c3)OCCOCCOCCOCCN4CCN(C)C)[nH]c2c1 [Compound 126] the “Response … (Na^+)” value [1, 8] was −1.2.
For O=C([O-])CN1CCOCCOCCOCCOc2cc(-c3c4cc(F)c(=O)cc-4oc4cc(O)c(F)cc34)ccc21.[K+] [Compound 127], the “Response … (Na^+)” value [1, 8] was 3.6 and the Kd [1, 9] was 20 mM.
